The source of these data is patent US20240034812A1, “BISPECIFIC ANTIBODY AGAINST CD3 AND CD20 IN COMBINATION THERAPY FOR TREATING DIFFUSE LARGE B-CELL LYMPHOMA” (GENMAB A/S, priority 2020, published 2024).

Read-outs that look alike come from different tables or passages of the source.

One data set concerns T cells. The experiment in a line: T cell viability after pre-incubation with CHOP components. Format: cell-based.
Data set [1] concerns CD20-expressing Raji-luc tumor cells. The conditions noted are these: even in the presence of an excess of IgG1-RTX-FEAR; Engelberts et al. 2020; cited from earlier work.
The subject of data set [2] is primary DLBCL and follicular lymphoma patient biopsies. To be noted: cited from earlier work.
Data set [3] has as its system relapsed/refractory (R/R) B-NHL. As to the kind of experiment: epcoritamab monotherapy clinical trial (NCT03625037). Format: in vivo. The text has this:
Epcoritamab as monotherapy is currently in a clinical trial for the treatment of relapsed/refractory (R/R) B-NHL (ClinicalTrials.gov Identifier: NCT03625037).

The target of a further data set is T1, CD20 (Homo sapiens, UniProt P11836).
T1 sequence (P11836 1-297): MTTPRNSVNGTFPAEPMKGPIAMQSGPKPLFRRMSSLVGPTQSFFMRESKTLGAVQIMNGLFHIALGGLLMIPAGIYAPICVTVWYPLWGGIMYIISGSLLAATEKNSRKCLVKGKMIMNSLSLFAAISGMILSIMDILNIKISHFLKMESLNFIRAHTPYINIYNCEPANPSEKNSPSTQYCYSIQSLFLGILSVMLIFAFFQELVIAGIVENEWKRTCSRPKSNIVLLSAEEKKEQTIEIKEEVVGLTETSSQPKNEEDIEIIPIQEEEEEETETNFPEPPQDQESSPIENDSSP
To be noted: bind to a different epitope; cited from earlier work.

Data set [4] has as its system previously untreated, high-risk (IPI or R-IPI≥3) DLBCL. The experiment in a line: Phase 1b open-label trial of epcoritamab in combination with R-CHOP. Format: in vivo, human. To be noted: as of Sep. 8, 2021; CRS under epcoritamab + R-CHOP. The procedure:
Epcoritamab is initially be administered in combination with R-CHOP in a 3-subject cohort. DLTs are evaluated during the first 28 days.
Cyclophosphamide (750 mg/m^2) is administered intravenously on day 1 once every three weeks (Q3 W) of cycles 1-6 or 1-8. Doxorubicin (50 mg/m^2) is administered intravenously on day 1 once every three weeks (Q3 W) of cycles 1-6 or 1-8. Vincristine (1.4 mg/m^2, with a recommended cap of 2 mg) is administered intravenously on day 1 once every three weeks (Q3 W) of cycles 1-6 or 1-8. Prednisone (100 mg/day) is administered intravenously or orally on five consecutive days (days 1-5) every three weeks (Q3 W) of cycles 1-6 or 1-8.
MRD negativity rate, is defined as the proportion of subjects with at least 1 undetectable MRD result according to the specific threshold, prior to initiation of subsequent therapy.

Where [5] appears, read: T cells pre-incubated 16 hours, data not shown.

In the case of `CC[C@]1(O)C[C@H]2CN(CCc3c([nH]c4ccccc34)[C@@](C(=O)OC)(c3cc4c(cc3OC)N(C=O)[C@H]3[C@@](O)(C(=O)OC)[C@H](OC(C)=O)[C@]5(CC)C=CCN6CC[C@]43[C@@H]65)C2)C1` [vincristine], in the data set on T cells (setting [5]), the “T cell viability after pretreatment” value is given as “did not impact T cell viability”.

As for “epcoritamab: IgG1 bispecific CD3xCD20 antibody; heavy and light chain pairs SEQ ID NOs: 24/25 (CD3ε arm) and 26/27 (CD20 arm); CAS 2134641-34-0”, the tumor growth result in data set [1] was “effectively reduce tumor growth”. Further, in data set [2] (biopsies taken a certain amount of time after anti-CD20 antibody, Van der Horst et al. 2019), the T-cell-mediated cytotoxicity result is “induced T-cell-mediated cytotoxicity”. Also, the tumor cell kill entry in data set [2] (biopsy taken 2 weeks after administering anti-CD20 antibody) is on record as “up to 40%”. The tolerated dose result in data set [3] (human, in vivo) is on record as “at least 48 mg”. In addition, the dose-limiting toxicities result in data set [3] (monotherapy, R/R B-NHL patients, preliminary data) is “no dose-limiting toxicities reported”.

As to `COc1cccc2c1C(=O)c1c(O)c3c(c(O)c1C2=O)C[C@@](O)(C(=O)CO)C[C@@H]3O[C@H]1C[C@H](N)[C@H](O)[C@H](C)O1` [doxorubicin], the “T cell viability after pretreatment” value with T cells (setting [5]) is reported as “led to a reduction in T cell viability”.

With `C[C@]12C=CC(=O)C=C1CC[C@@H]1[C@@H]2C(=O)C[C@@]2(C)[C@H]1CC[C@]2(O)C(=O)CO` [prednisone, 17,21-dihydroxypregna-1,4-diene-3,11,20-trione], the “T cell viability after pretreatment” value with T cells (setting [5]) is on record as “did not impact T cell viability”.

With “IgG1-CD20: anti-CD20 antibody of which the CD20 arm of epcoritamab is derived”, the “competition for CD20 binding” value in the data set with CD20 is given as “compete for CD20 binding”.

Turning to `O=P1(N(CCCl)CCCl)NCCCO1` (centres unmarked) [cyclophosphamide, 2H-1,3,2-Oxazaphosphorin-2-amine, N,N-bis(2-chloroethyl)tetrahydro-, 2-oxide], the “T cell viability after pretreatment” value in the data set with T cells was “did not impact T cell viability”.

In the case of “tocilizumab: a humanized antibody against IL-6 receptor, commercially available as, e.g., ACTEMRA”, in data set [4], the “outcome of the Grade 3 CRS episode after treatment” value is “recovered”.
